{"source": "patent US10285382B2", "about": "(priority 2017, dated 2019)", "key": {"[1]": {"test_system": "chicks", "description": "The chicks hatched according to the methods of Examples 2 and 3 are shipped to a broiler facility and raised to maturity. No additional changes to grow-out methods are made. A total of about 4 million eggs are set per month and the saleable chicks are sent to the grow-out facility. […] The wholesale price of a broiler is currently estimated at $0.85 per pound. […] See the http:///.nationalchickencouncil.org available on the web."}, "[2]": {"test_system": "flies and other unwanted insects", "excerpt": "In addition to the incoming eggs, the egg room includes excess shipping boxes and pallets."}, "[3]": {"test_system": "E. coli K12", "details": "for % Reduction vs. Control / Log10 reduction / Log10 reduction vs. Control / Percent reduction: DHP (+)"}}, "note": "Where two headings read alike, the source gives them in different places.", "data": [{"smiles": "OO", "note": "[DHP, dry hydrogen peroxide]", "values": [{"measurement": "Mortality Rate", "setting": "[1]; After DHP treatment, grow-out facility", "result": 2.2, "unit": "%"}, {"measurement": "Net increase (# Broilers)", "setting": "[1]; After DHP treatment, per month", "result": "308,678"}, {"measurement": "reduction of mortality", "setting": "[1]; at the grow-out facility", "result": "about 7.8%"}, {"measurement": "increase in overall production", "setting": "[1]; per month", "result": "over 300,000 broilers"}, {"measurement": "elimination of flies and other unwanted insects", "setting": "[2]; egg room, DHP between 0.1 ppm and 0.2 ppm", "result": "sufficient to eliminate"}, {"measurement": "elimination of flies and other unwanted insects, both flying and non-flying", "setting": "[2]; incorporation of DHP into the egg room", "result": "eliminates"}, {"measurement": "flying insects in the facility", "setting": "[2]; within the first couple days of applying DHP to the poultry space", "result": "virtually eliminated"}, {"measurement": "% Reduction vs. Control", "setting": "[3]; 1 hour", "result": 99.8, "unit": "%"}, {"measurement": "Log10 reduction", "setting": "[3]; 1 hour", "result": ">4.78"}, {"measurement": "Log10 reduction vs. Control", "setting": "[3]; 1 hour", "result": 2.82}, {"measurement": "Percent reduction", "setting": "[3]; 1 hour", "result": ">99.9984", "unit": "%"}, {"measurement": "% Reduction vs. Control", "setting": "[3]; 2 hours", "result": 98.1, "unit": "%"}, {"measurement": "Log10 reduction", "setting": "[3]; 2 hours", "result": ">4.79"}, {"measurement": "Log10 reduction vs. Control", "setting": "[3]; 2 hours", "result": 1.71}, {"measurement": "Percent reduction", "setting": "[3]; 2 hours", "result": ">99.9984", "unit": "%"}, {"measurement": "aerosolized bacteria in the DHP treated space", "setting": "[3]; within one hour", "result": "essentially eliminated"}]}]}
